For 11 compounds, IC50 results are on record in patent US12649751B2 (Arcus Biosciences, Inc., priority 2022, dated 2026).

A value given as a limit tells only on which side of the number the result lay.

Sequence of HPK1 (Q92918 whole entry, species assumed): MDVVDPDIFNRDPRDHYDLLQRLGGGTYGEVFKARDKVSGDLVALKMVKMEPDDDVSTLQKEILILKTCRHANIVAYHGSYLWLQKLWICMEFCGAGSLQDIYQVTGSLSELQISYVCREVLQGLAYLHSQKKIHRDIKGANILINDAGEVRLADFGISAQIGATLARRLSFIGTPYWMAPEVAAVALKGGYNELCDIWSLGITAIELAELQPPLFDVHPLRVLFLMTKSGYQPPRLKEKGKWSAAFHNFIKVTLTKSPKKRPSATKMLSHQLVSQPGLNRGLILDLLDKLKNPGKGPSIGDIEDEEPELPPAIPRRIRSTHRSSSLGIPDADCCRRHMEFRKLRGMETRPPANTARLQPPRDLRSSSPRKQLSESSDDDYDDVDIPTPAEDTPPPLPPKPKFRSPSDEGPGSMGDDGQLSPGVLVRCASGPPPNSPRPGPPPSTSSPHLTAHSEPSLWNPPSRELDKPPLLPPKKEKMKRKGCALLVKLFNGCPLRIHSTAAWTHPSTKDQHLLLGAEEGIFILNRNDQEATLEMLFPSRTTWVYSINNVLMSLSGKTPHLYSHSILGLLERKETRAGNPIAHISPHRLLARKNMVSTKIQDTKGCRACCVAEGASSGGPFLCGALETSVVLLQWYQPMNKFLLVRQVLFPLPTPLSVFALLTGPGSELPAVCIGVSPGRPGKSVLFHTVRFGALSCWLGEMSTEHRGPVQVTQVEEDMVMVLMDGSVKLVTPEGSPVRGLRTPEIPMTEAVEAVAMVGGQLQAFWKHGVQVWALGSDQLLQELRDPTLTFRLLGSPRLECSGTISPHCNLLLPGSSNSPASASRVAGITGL

The assay has as its target HPK1 (Homo sapiens, UniProt Q92918). The assay is described as follows: HPK1 Biochemical Assay (ADP-Glo luminescence; low ATP 10 μM or high ATP 200 μM). The following applies: 2 nM HPK1, 10 μM ATP; read-out: Biochemical Potency (low ATP). On the technique in general: In ADP-Glo the light output rises with the ADP produced.
As to `CN1C[C@@H]2C[C@H]1CN2c1nccc(Nc2cc3nc(-c4ccnc(N5CC[C@H](F)C5)c4)sc3cn2)n1` [Example 265, N-(2-{2-[(3S)-3-Fluoropyrrolidin-1-yl]pyridin-4-yl}-[1,3]thiazolo[5,4-c]pyridin-6-yl)-2-[(1S,4S)-5-methyl-2,5-diazabicyclo[2.2.1]heptan-2-yl]pyrimidin-4-amine], the IC50 is under 100 nM.

On to `CN1C[C@@H]2C[C@H]1CN2c1nccc(Nc2cc3nc(-c4ccnc(N5CC[C@H](O)C5)c4)sc3cn2)n1` [Example 266, (3S)-1-{4-[6-({2-[(1S,4S)-5-Methyl-2,5-diazabicyclo[2.2.1]heptan-2-yl]pyrimidin-4-yl}amino)-[1,3]thiazolo[5,4-c]pyridin-2-yl]pyridin-2-yl}pyrrolidin-3-ol], for which the IC50 is under 100 nM.

Consider `CN1C[C@@H]2C[C@H]1CN2c1nccc(Nc2cc3nc(-c4ccnc(N5CC[C@@H](F)C5)c4)sc3cn2)n1` [Example 267, N-(2-{2-[(3R)-3-Fluoropyrrolidin-1-yl]pyridin-4-yl}-[1,3]thiazolo[5,4-c]pyridin-6-yl)-2-[(1S,4S)-5-methyl-2,5-diazabicyclo[2.2.1]heptan-2-yl]pyrimidin-4-amine], for which the IC50 is under 100 nM.

On to `Cc1cccnc1-c1nc2cc(Nc3ccc(N4CCC(F)(F)C4)c(C(C)(C)N)n3)ncc2s1` [Example 272, 6-(2-Aminopropan-2-yl)-5-(3,3-difluoropyrrolidin-1-yl)-N-[2-(3-methylpyridin-2-yl)-[1,3]thiazolo[5,4-c]pyridin-6-yl]pyridin-2-amine], for which the IC50 is under 100 nM.

Consider `CCNCc1nc(Nc2cc3nc(-c4c(C)cccc4F)sc3cn2)ccc1N1CCC(F)(F)C1` [Example 279, 5-(3,3-Difluoropyrrolidin-1-yl)-6-[(ethylamino)methyl]-N-[2-(2-fluoro-6-methylphenyl)-[1,3]thiazolo[5,4-c]pyridin-6-yl]pyridin-2-amine], for which the IC50 was under 100 nM.

On to `Cc1cccnc1-c1nc2cc(Nc3ccc(N4CCC(F)(F)C4)c(N4CCCC4)n3)ncc2s1` [Example 280, 5-(3,3-Difluoropyrrolidin-1-yl)-N-[2-(3-methylpyridin-2-yl)-[1,3]thiazolo[5,4-c]pyridin-6-yl]-6-(pyrrolidin-1-yl)pyridin-2-amine], for which the IC50 was 1000 to 5000 nM.

Regarding `Cc1cccnc1-c1nc2cc(Nc3ccc(N4CCC(F)(F)C4)c(N4C[C@@H]5C[C@H]4CN5C)n3)ncc2s1` [Example 281, 5-(3,3-Difluoropyrrolidin-1-yl)-6-[(1S,4S)-5-methyl-2,5-diazabicyclo[2.2.1]heptan-2-yl]-N-[2-(3-methylpyridin-2-yl)-[1,3]thiazolo[5,4-c]pyridin-6-yl]pyridin-2-amine], the IC50 was under 100 nM.

As to `CN(C)Cc1nc(Nc2cc3nc(NC(=O)c4c(F)cccc4F)sc3cn2)ccc1N1CCOCC1` [Example 282, N-[6-({6-[(Dimethylamino)methyl]-5-(morpholin-4-yl)pyridin-2-yl}amino)-[1,3]thiazolo[5,4-c]pyridin-2-yl]-2,6-difluorobenzamide], the IC50 was under 100 nM.

Regarding `Cc1cccnc1-c1nc2cc(Nc3ccc(C4CCOCC4)c(C4CCNC4)n3)ncc2s1` (centres unmarked) [Example 283, N-[2-(3-Methylpyridin-2-yl)-[1,3]thiazolo[5,4-c]pyridin-6-yl]-5-(oxan-4-yl)-6-(pyrrolidin-3-yl)pyridin-2-amine], the IC50 is under 100 nM.

Consider `Cc1ccc(N2C[C@@H]3C[C@H]2CN3C)nc1Nc1cc2nc(-c3ncccc3C)sc2cn1` [Example 284, 3-methyl-6-[(1S,4S)-5-methyl-2,5-diazabicyclo[2.2.1]heptan-2-yl]-N-[2-(3-methylpyridin-2-yl)-[1,3]thiazolo[5,4-c]pyridin-6-yl]pyridin-2-amine], for which the IC50 fell in the range of 100 to 1000 nM.

For `CS(=O)(=O)Nc1cccc(-c2nc3cc(Nc4cccc(N5C[C@@H]6C[C@H]5CN6)n4)ncc3s2)c1` [Example 287, N-{3-[6-({6-[(1S,4S)-2,5-diazabicyclo[2.2.1]heptan-2-yl]pyridin-2-yl}amino)-[1,3]thiazolo[5,4-c]pyridin-2-yl]phenyl}methanesulfonamide], the IC50 was under 100 nM.
